Laboratory results as given in PubChem BioAssay AID180 (DTP/NCI, 2004).
Where “and” joins values, the source holds several entries; their conditions need not be identical. Equal values may be shown once.

System: BDF1 mice, Adenocarcinoma 755 s.c., tumor weight T/C
Experiment: NCI In Vivo Anticancer Drug Screen. Data for tumor model Adenocarcinoma 755 (subcutaneous) in B6D2F1 (BDF1) mice
Settings: endpoint: mean tumor weight, higher = larger tumour
Procedure: The antitumor activity of compounds was measured in mice bearing transplantable tumors. Survival or tumor size were measured and the results are expressed as the measurement made in the treated group (T) divided by the measurement made in the vehicle treated control group (C). The tumor model used in this assay is Adenocarcinoma 755 (subcutaneous) in B6D2F1 (BDF1) mice

[1] = dose: 25.0 mg/kg/injection, schedule: Q01DX011 (ip), vehicle: carboxymethylcellulose (CMC)
[2] = dose: 50.0 mg/kg/injection, schedule: Q01DX011 (ip), vehicle: carboxymethylcellulose (CMC)
[3] = dose: 100.0 mg/kg/injection, schedule: Q01DX011 (ip), vehicle: carboxymethylcellulose (CMC)

Which T/C (dose: 30.0 mg/kg/injection, schedule: Q01DX011 (ip), vehicle: saline) does the source give for `N#[N+]c1cn(C2CC(O)C(CO)O2)c(=O)[nH]c1=O` (stereo not given) here?
Its T/C is 106 % of control.

And the T/C (dose: 60.0 mg/kg/injection, schedule: Q01DX011 (ip), vehicle: saline)?
Its T/C is 118 % of control.

What about the T/C (dose: 120.0 mg/kg/injection, schedule: Q01DX011 (ip), vehicle: saline) of the same compound?
Its T/C is 94 % of control.

And the T/C (dose: 240.0 mg/kg/injection, schedule: Q01DX011 (ip), vehicle: saline)?
Its T/C is 47 % of control.

What does the source list for `c1ccc2c3c(ccc2c1)Sc1ccc2ccccc2c1N3`?
T/C (dose: 27.5 mg/kg/injection, schedule: Q01DX011 (ip), vehicle: methylcellulose (MC)): 73 % of control; T/C (dose: 27.5 mg/kg/injection, schedule: Q01DX011 (ip), vehicle: other): 108 % of control; T/C (dose: 55.0 mg/kg/injection, schedule: Q01DX011 (ip), vehicle: methylcellulose (MC)): 76 % of control; T/C (dose: 55.0 mg/kg/injection, schedule: Q01DX011 (ip), vehicle: other): 115 % of control; T/C (dose: 110.0 mg/kg/injection, schedule: Q01DX011 (ip), vehicle: methylcellulose (MC)): 58 % of control; T/C (dose: 440.0 mg/kg/injection, schedule: Q01DX011 (ip), vehicle: other): 64 % of control

Which T/C (dose: 14.5 mg/kg/injection, schedule: Q01DX011 (ip), vehicle: carboxymethylcellulose (CMC)) does the source give for `Cn1c(=O)c2[nH]cnc2n(C)c1=O` here?
The T/C was 85 % of control.

What about the T/C (dose: 18.25 mg/kg/injection, schedule: Q01DX011 (ip), vehicle: carboxymethylcellulose (CMC)) of the same compound?
The T/C was 68 % of control.

And the T/C (dose: 19.87 mg/kg/injection, schedule: Q01DX011 (ip), vehicle: carboxymethylcellulose (CMC))?
The T/C was 80 % of control.

And the T/C (dose: 29.0 mg/kg/injection, schedule: Q01DX011 (ip), vehicle: carboxymethylcellulose (CMC))?
The T/C was 44 % of control.

And the T/C (dose: 36.5 mg/kg/injection, schedule: Q01DX011 (ip), vehicle: carboxymethylcellulose (CMC))?
The T/C was 92 % of control.

And the T/C (dose: 39.74 mg/kg/injection, schedule: Q01DX011 (ip), vehicle: carboxymethylcellulose (CMC))?
The T/C was 52 % of control.

And the T/C (dose: 63.0 mg/kg/injection, schedule: Q01DX011 (ip), vehicle: carboxymethylcellulose (CMC))?
Its T/C is 86 % of control.

What about the T/C (dose: 77.33 mg/kg/injection, schedule: Q01DX011 (ip), vehicle: carboxymethylcellulose (CMC)) of the same compound?
Its T/C is 53 % of control and 72 % of control.

And the T/C (dose: 79.48 mg/kg/injection, schedule: Q01DX011 (ip), vehicle: carboxymethylcellulose (CMC))?
Its T/C is 53 % of control.

What about the T/C (dose: 116.0 mg/kg/injection, schedule: Q01DX011 (ip), vehicle: carboxymethylcellulose (CMC)) of the same compound?
The T/C was 75 % of control.

And the T/C (dose: 158.97 mg/kg/injection, schedule: Q01DX011 (ip), vehicle: carboxymethylcellulose (CMC))?
Its T/C is 60 % of control.

How did the T/C (dose: 20.0 mg/kg/injection, schedule: Q01DX011 (ip), vehicle: carboxymethylcellulose (CMC)) turn out when `O=S(=O)(O)C(Nc1ccccc1)c1ccccc1` (stereo not given) was run?
Its T/C is 119 % of control.

And the T/C (dose: 40.0 mg/kg/injection, schedule: Q01DX011 (ip), vehicle: carboxymethylcellulose (CMC))?
Its T/C is 91 % of control.

What about the T/C (dose: 80.0 mg/kg/injection, schedule: Q01DX011 (ip), vehicle: carboxymethylcellulose (CMC)) of the same compound?
Its T/C is 70 % of control.

For `COC(=O)c1nc(-c2ccc3c(n2)C(=O)C(N)=C(OC)C3=O)c(N)c(-c2ccc(OC)c(OC)c2O)c1C`, which T/C (dose: 0.31 mg/kg/injection, schedule: Q01DX011 (ip), vehicle: other) is on record?
The T/C was 42 % of control.

What about the T/C (dose: 0.63 mg/kg/injection, schedule: Q01DX011 (ip), vehicle: other) of the same compound?
The T/C was 14 % of control.

And the T/C (dose: 1.25 mg/kg/injection, schedule: Q01DX011 (ip), vehicle: other)?
The T/C was 1 % of control.

And the T/C (dose: 6.0 mg/kg/injection, schedule: Q01DX006 (ip), vehicle: water)?
Its T/C is 40 % of control.

What about the T/C (dose: 12.5 mg/kg/injection, schedule: Q01DX006 (ip), vehicle: water) of the same compound?
The T/C was 7 % of control.

What does the source list for `CCC(C)SC1=NC=NC2=NC=NC21` (stereo not given)?
T/C (dose: 9.0 mg/kg/injection, schedule: Q01DX011 (ip), vehicle: other): 56 % of control; T/C (dose: 13.0 mg/kg/injection, schedule: Q01DX011 (ip), vehicle: other): 33 % of control; T/C (dose: 20.0 mg/kg/injection, schedule: Q01DX011 (ip), vehicle: other): 6 % of control; T/C (dose: 30.0 mg/kg/injection, schedule: Q01DX011 (ip), vehicle: other): 6 % of control

Which results are given for `Cc1cnc(SCc2ccc(Cl)cc2Cl)nc1SCc1ccc(Cl)cc1Cl`?
T/C (dose: 31.0 mg/kg/injection, schedule: Q01DX011 (ip), vehicle: methylcellulose (MC)): 114 % of control; T/C (dose: 125.0 mg/kg/injection, schedule: Q01DX011 (ip), vehicle: methylcellulose (MC)): 100 % of control; T/C (dose: 250.0 mg/kg/injection, schedule: Q01DX011 (ip), vehicle: methylcellulose (MC)): 117 % of control

How did the T/C (dose: 25.0 mg/kg/injection, schedule: Q01DX011 (ip), vehicle: saline) turn out when `COc1cc(-c2ccc(Nc3ccccc3C(=O)O)c(OC)c2)ccc1Nc1ccccc1C(=O)O` was run?
The T/C was 75 % of control.

And the T/C (dose: 50.0 mg/kg/injection, schedule: Q01DX011 (ip), vehicle: saline)?
Its T/C is 28 % of control.

What about the T/C (dose: 100.0 mg/kg/injection, schedule: Q01DX011 (ip), vehicle: saline) of the same compound?
The T/C was 5 % of control.

`CCOC=Nc1c(N)ncnc1F` was tested. Which T/C (dose: 30.0 mg/kg/injection, schedule: Q01DX011 (ip), vehicle: carboxymethylcellulose (CMC)) did it give?
The T/C was 92 % of control.

And the T/C (dose: 60.0 mg/kg/injection, schedule: Q01DX011 (ip), vehicle: carboxymethylcellulose (CMC))?
Its T/C is 89 % of control.

And the T/C (dose: 120.0 mg/kg/injection, schedule: Q01DX011 (ip), vehicle: carboxymethylcellulose (CMC))?
The T/C was 57 % of control.

And the T/C (dose: 240.0 mg/kg/injection, schedule: Q01DX011 (ip), vehicle: carboxymethylcellulose (CMC))?
Its T/C is 55 % of control.

For `CC(C)COC(=O)C1(N)CCCC1`, which T/C [1] is on record?
Its T/C is 98 % of control.

What about the T/C [2] of the same compound?
The T/C was 33 % of control.

And the T/C [3]?
The T/C was 12 % of control.

How did the T/C (dose: 12.5 mg/kg/injection, schedule: Q01DX011 (ip), vehicle: carboxymethylcellulose (CMC)) turn out when `CCCOC(=O)C1(N)CCCC1` was run?
Its T/C is 79 % of control.

And the T/C [1]?
Its T/C is 44 % of control.

And the T/C [2]?
The T/C was 24 % of control.

And the T/C [3]?
The T/C was 7 % of control.
